From patent US4117108A, “Oral hygiene” (Noxell Corporation, priority 1976, dated 1978)

Tests used:
[1] = system: pellicle and plaque growth on extracted human teeth and plastic strip; experiment: Inhibition of plaque/pellicle formation on extracted human teeth (mounted on polymethylmethacrylate strip) with composition added to the media (Example 20 procedure); design: species or system human saliva / human teeth; conditions: for pellicle and plaque formation/inhibition on the teeth: 0.1 ml of 1% by weight in distilled water added to about 200 ml media, second 24 h at about 37° C
Experimental: A set of three extracted human teeth without the roots is mounted on a polymethylmethacrylate plastic strip of about 1 inch × 3 inches. A drop of human saliva is applied to each tooth and allowed to dry. The set of teeth is then placed in a petri dish and covered with about 200 ml of an aqueous solution of about 2% trypticase and about 4% sucrose. The dish is then inoculated with an additional 1 ml of human saliva and then incubated at about 37° C for about 24 hours.
Next, the set of teeth is removed from the media, rinsed, and then dipped into a 0.5% aqueous solution of FD & C RED No. 3 to visually disclose the plaque.
The teeth are then brushed with water using an electric toothbrush fitted with a soft nylon brush until all of the red disclosed plaque and/or pellicle is removed.
The teeth are then swabbed with human saliva, placed in a petri dish covered with about 200 ml of the trypticase-sucrose media and about 0.1 ml of a composition containing 1% by weight DL-N-carboxymethylmethyl-N,N-dimethyl-N-(3-palmitamidopropyl) ammonium betaine and the remainder being distilled water. The contents of the dish are then inoculated with an additional 1 ml of saliva and incubated for about 24 hours at about 37° C. At the end of the 24 hours, the set of teeth is removed from the media, dried, and dipped into a 0.5% FE & C RED No. 3 solution for about 60 seconds to visually disclose the presence of pellicle and plaque and is then rinsed under tap water.

[2] = system: pellicle and plaque growth on extracted human teeth and plastic strip; experiment: as above; design: species or system human saliva / human teeth; conditions: 0.1 ml of 1% by weight in propylene glycol; second 24 h
[3] = system: plaque and pellicle growth on extracted human teeth; experiment: Inhibition of plaque/pellicle redeposition on extracted human teeth brushed with the composition, then incubated with saliva (Example 1A procedure)
Experimental: A set of three extracted human teeth without the roots is mounted on a plastic strip of about 1 inch × 3 inches. The teeth are then swabbed with human saliva using a sterile Dacron swab and allowed to dry for about 15 minutes. The strip is then placed in a petri dish and covered with about 200 ml of an aqueous solution of about 2% trypticase and about 4% sucrose. Each dish is then inoculated with an additional 1 ml of human saliva and then incubated at about 37° C for about 24 hours.
Next, the set of teeth is removed from the media, dried, and then dipped into a 0.5% aqueous solution of FD & C RED No. 3 to visually disclose the plaque. The strip is then rinsed under tap water.
The teeth are then brushed with an electric toothbrush […], […], until all of the red disclosed plaque is removed and are then rinsed.
The teeth are then again swabbed with human saliva, placed in a petri dish covered with the trypticase-sucrose media, which is then inoculated with an additional 1 ml of saliva and incubated for about 24 hours at about 37° C. At the end of the 24 hours, the set of teeth is removed from the media, dried, and dipped into a 0.5% FD & C RED No. 3 solution for about 60 seconds to visually disclose the presence of plaque and is then rinsed under tap water.
All of the above examples employed new sets of teeth or plastic strips and new brushes for the brushing, respectively. Any NaCl present in the composition is due to its presence in the available compositions of the fatty acid amido compounds.

[4] = system: plaque and pellicle formation; experiment: Observed plaque/pellicle retardation (general statements, test not specified at the place); conditions: for plaque inhibition activity: various compositions with about 5% betaine, including (isostearic) 24% glycerin, 1% propylene glycol, 0.75% carboxymethyl cellulose, 69.25% water
Acute oral LD50 study = conditions: in vivo, rat, palmitic amido betaine purified according to Example 10
Experimental: An acute oral LD50 study was done on rats for Schercotaine PAB in mature albino rats.
Palmitic amido betaine purified according to Example 10 is also tested according to the above procedure.

[5] = system: plaque and/or pellicle growth on polymethyl methacrylate strips; experiment: Inhibition of plaque/pellicle growth on polymethyl methacrylate strips brushed with the composition (Example 16 procedure); design: species or system human saliva; conditions: second 24 h

CCCCCCCC/C=C\CCCCCCCC(=O)NCCC[N+](C)(C)C(C)C(=O)[O-] (racemic) [DL-N-carboxymethylmethyl-N,N-dimethyl-N-(3-oleylamidopropyl) ammonium betaine]
pellicle and plaque formation/inhibition on the teeth [1]: inhibits plaque and pellicle formation on the teeth

CCCCCCCCCCCCCCCC(=O)NCCC[N+](C)(C)C(C)C(=O)[O-] (racemic) [DL-N-carboxymethylmethyl-N,N-dimethyl-N-(3-palmitamidopropyl) ammonium betaine]
pellicle and plaque formation/inhibition on the teeth [1]: No pellicle and plaque growth are observed on the teeth

CCCCCCCCCCCCCCCCCC(=O)NCCC[N+](C)(C)C(C)C(=O)[O-] (racemic) [DL-N-carboxymethylmethyl-N,N-dimethyl-N-(3-stearamidopropyl) ammonium betaine]
pellicle and plaque formation/inhibition on the teeth [1]: slight activity against plaque and pellicle formation on the teeth

CCCCCCCC/C=C\CCCCCCCC(=O)NCCC[N+](C)(C)CCS(=O)(=O)[O-] [2-[N,N-dimethyl-N-(3-oleylamidopropyl)-amino] ethanesulfobetaine]
activity against plaque and pellicle formation on the teeth [2]: exhibits activity against plaque and pellicle formation on the teeth
plaque growth on teeth and plastic [2]: Very slight plaque growth is observed on teeth and plastic

CCCCCCCCCCCCCCCC(=O)NCCC[N+](C)(C)CCS(=O)(=O)[O-] [2-[N,N-dimethyl-N-(3-palmitamidopropyl)-amino] ethanesulfobetaine]
activity against plaque and pellicle formation on the teeth [2]: exhibits activity against plaque and pellicle formation on the teeth
plaque growth on teeth and plastic [2]: Only slight plaque growth is observed on the teeth and plastic

CCCCCCCC/C=C\CCCCCCCC(=O)NCCC[N+](C)(C)CCC(=O)[O-] [N-carboxyethyl-N,N-dimethyl-N-(3-oleylamidopropyl) ammonium betaine]
pellicle and plaque formation/inhibition on the teeth [1]: inhibits plaque and pellicle formation on the teeth

CCCCCCCCCCCCCCCC(=O)NCCC[N+](C)(C)CCC(=O)[O-] [N-carboxyethyl-N,N-dimethyl-N-(3-palmitamidopropyl) ammonium betaine]
pellicle and plaque formation/inhibition on the teeth [1]: complete inhibition of plaque and pellicle formation on the teeth
plaque and/or pellicle on the plastic strip ([1]; 0.1 ml of 1% by weight in distilled water, second 24 h): very slight plaque and/or pellicle on the plastic strip

CCCCCCCCCCCCCCCCCC(=O)NCCC[N+](C)(C)CCC(=O)[O-] [N-carboxyethyl-N,N-dimethyl-N-(3-stearamidopropyl) ammonium betaine]
pellicle and plaque formation/inhibition on the teeth [1]: inhibits plaque and pellicle formation on the teeth

CCCCCCCC/C=C\CCCCCCCC(=O)NCCC[N+](C)(C)CC(=O)[O-] [oleic amido betaine]
inhibition of pellicle and plaque growth ([3]; Example 7: about 25% betaine, up to 5% NaCl, water (Schercotaine OAB), second 24 h): almost complete inhibition of pellicle and plaque growth on the teeth

CCCCCCCCCCCCCCCC(=O)NCCC[N+](C)(C)CC(=O)[O-] [palmitic amido betaine]
plaque growth on teeth / inhibition of plaque redeposition ([3]; Example 1A: about 25% palmitic amido betaine, 2-5% NaCl, remainder water (Schercotaine PAB), brushed and rinsed, second 24 h at 37° C): effectively inhibits the redeposition of dental plaque on the teeth
pellicle and plaque inhibition ([3]; Example 2: about 20% betaine, 10% ethyl alcohol, 70% water, second 24 h): provides pellicle and plaque inhibition although not as great as the preparation employed in Example 1A
prevention of pellicle and plaque formation ([3]; Example 4: about 10% betaine, 8% silica gel (Syloid 244), 36.4% sorbitol, up to 5% NaCl, water, second 24 h): complete prevention of pellicle and plaque formation on the teeth
pellicle or plaque formation ([3]; Example 5: about 2.5% betaine, 10% ethyl alcohol, up to 5% NaCl, water, brushed and dipped, not rinsed, second 24 h): no pellicle or plaque formation on the set of teeth
pellicle and plaque inhibition ([3]; Example 8: about 10 parts betaine, 35.7 sorbitol, 8 silica QUSO G-30, 1 propylene glycol, 45 water, second 24 h): complete pellicle and plaque inhibition on the teeth
inhibition of pellicle and plaque growth ([3]; Example 9: about 10 parts betaine, 35.7 sorbitol, 8 silica QUSO G-32, 1 propylene glycol, 45 water, second 24 h): complete inhibition of pellicle and plaque growth
inhibition of plaque and pellicle growth ([3]; Example 10: about 10% purified betaine, 90% water, 24 h): complete inhibition of plaque and pellicle growth on the teeth
inhibition of plaque and pellicle growth ([3]; Example 11: about 5% purified betaine, 95% water, 24 h): partial inhibition of plaque and pellicle growth on the teeth
inhibition of pellicle and plaque growth ([3]; Example 12: about 30 parts betaine in paste with sorbitol, glycerin, carboxymethyl cellulose, Syloid 244, hydrated alumina, pH about 6.4, second 24 h): complete inhibition of pellicle and plaque growth on the teeth
plaque and pellicle inhibition ([3]; Example 13: about 25 parts purified betaine in paste with sorbitol, carboxymethyl cellulose, hydrated alumina, Syloid 244, glycerin, second 24 h): complete plaque and pellicle inhibition on the teeth
inhibition of plaque and pellicle growth ([3]; Example 14: about 30 parts purified betaine in paste with Pluronic F-68, sorbitol, carboxymethyl cellulose, hydrated alumina, Syloid 244, second 24 h): complete inhibition of plaque and pellicle growth on the teeth
retardation of plaque formation ([4]; about 2.5% betaine, about 10% silica, about 56% sorbitol, up to 5% NaCl, water, with rinsing): did not retard plaque formation
retardation of plaque formation ([4]; about 2.5% or less betaine, about 10% ethyl alcohol, up to about 5% NaCl, water, with rinsing): did not retard plaque formation
retardation of plaque formation ([4]; about 5% betaine, about 8% silica, about 50.5% sorbitol, about 36.5% water): marginally effective in that sometimes the composition exhibited retardation of plaque while other times the composition did not
retardation of plaque formation ([4]; about 5% betaine, about 95% water): retarded plaque formation
prevention of plaque formation ([4]; same compositions (2.5% or less with ethyl alcohol; 2.5% with silica/sorbitol), no rinsing after treatment): prevented the formation of plaque
LD50 (Acute oral LD50 study): 2400 mg/kg
prevention of plaque and/or pellicle growth ([5]; Example 17B: Denta Fresh ingredients with Tegobetaine C replaced by 15% palmitic amido betaine): does not prevent plaque and/or pellicle growth

CCCCCCCCCCCCCCCCCC(=O)NCCC[N+](C)(C)CC(=O)[O-] [stearic amido betaine]
plaque inhibition activity [4]: did not exhibit plaque inhibition activity

isostearic amido betaine
plaque and pellicle inhibition ([3]; Example 3: about 35% betaine, 2-5% NaCl, remainder water (Schercotaine IAB), second 24 h): good plaque and pellicle inhibition
pellicle and plaque inhibition ([3]; Example 6: about 5% betaine, 24% glycerin, 0.75% hydroxyethyl cellulose, 1% propylene glycol, up to 5% NaCl, water, second 24 h): moderate pellicle and plaque inhibition
plaque and pellicle on the teeth ([3]; Example 15: about 14% betaine, 86% water, second 24 h): no plaque and pellicle are present on the teeth
plaque inhibition ([4]; about 5% betaine, similar composition with about 0.75% hydroxyethyl cellulose in place of carboxymethyl cellulose): retarded plaque formation and exhibited moderate plaque inhibition
plaque inhibition activity [4]: did not exhibit plaque inhibition activity
prevention of plaque and/or pellicle growth ([5]; Example 17C: Denta Fresh ingredients with Tegobetaine C replaced by 15% isostearic amido betaine): does not prevent plaque and/or pellicle growth
